The source of these data is US12605517B1 (Belhaven BioPharma Inc., priority 2024, dated 2026).

A short description of data set [1]: Human Phase 1 clinical study, plasma epinephrine pharmacokinetics and bioavailability. The settings on record: for Tmax: read-out: median Tmax (converted). It is filed as in vivo.
Protocol: Twelve human subjects participated in the open-label, single sequence crossover study. […] Nor did the subject participate in Treatment D.
The dry powder formulation was administered via intranasal instillation once using a nasal device (APTAR). The IM solution and materials were supplied by the study site and prepared according to the local procedures. The study drug was administered at approximately the same time on each treatment day. There was a washout period of 20 days between the nasal doses administered as treatment A and treatment D. The subjects were admitted to the clinical site the day before each treatment administration and remained on site until at least 8 hours post-dose, or when applicable, until 24 hours post-dose of the specific treatment period. The study drug was administered after at least a 10 hour fast. A standardized meal was provided approximately 4 hours after dosing.
Blood samples were collected prior to dosing at 60, 30, and 0 minutes before dosing, and after dosing at 2, 5, 7, 10, 15, 20, 25, 30, 45, 60, 90, 120, 180, 240, and 360 minutes. […] The calibration curve range of the bioanalytical method was from 10 to 10000 pg/mL. Recovery was >75% and freeze-thaw, short-term and long-term stability (584 days) were all shown to be acceptable; the analyte was stable under all conditions tested.
Noncompartmental analysis was performed on individual human subject plasma concentration-time data using nominal doses and actual blood sampling times. […] Baseline correction was accomplished using the average of the measured concentrations at nominal times of −60, −30, and 0 minutes before dosing.
Pharmacokinetic analyses were performed using the standard PK analysis software package PHOENIX® WinNonlin version 8.4.
The PK population consists of all human subjects who provided sufficient PK samples for a given treatment to allow for adequate determination of PK parameters of interest.
Data set [2] in a line: Study 101, plasma epinephrine pharmacokinetics. Type of data set: in vivo. To be noted: human, im. As for the experimental part: Each patient was provided each treatment of the trial with 72-hour washout periods between each treatment, beginning with a 3.5 mg intranasal dose, followed by a 0.3 mg intramuscular dose, followed by a 0.5 mg intramuscular dose, and concluding with a 5.5 mg intranasal dose, with a safety follow-up performed 3 to 5 days after the final dose was administered. The primary endpoints of the study were pharmacokinetic measurements and assessments of comparative bioavailability, while the secondary endpoints were safety concerns and pharmacodynamic assessments.

SMILES strings stand for the structures.

As to `CNC[C@H](O)c1ccc(O)c(O)c1` [Epinephrine IM, epinephrine], the maximum concentration (Cmax) in data set [1] (0.3 mg IM, read-out: mean baseline-corrected Cmax) worked out at 0.184 ng/mL. Further, the Tmax in data set [1] (0.3 mg IM) is 48 min; in data set [1] (0.5 mg IM), 48 min; in data set [2] (0.3 mg, 0.3 mg IM, read-out: Tmax (Mean) (converted)), 41.4 min; in data set [2] (0.3 mg, 0.3 mg IM, read-out: Tmax (Median) (converted)), 48 min; in data set [2] (0.5 mg, 0.5 mg IM, read-out: Tmax (Mean) (converted)), 40.9 min; in data set [2] (0.5 mg, 0.5 mg IM, read-out: Tmax (Median) (converted)), 48 min.

Broadly, the Cmax is the maximum level reached in the sampled fluid or tissue. Broadly, the Tmax is the time at which the peak concentration occurs.
